In paper PMC9699427 (Viruses, 2022):
Where two headings read alike, the source gives them in different places.

Assay: Pharmacokinetics after iv and oral dosing
Type: in vivo, BALB/c mice
Conditions: for half-life: read-out: t1/2z (converted)
[1] = mouse, plasma, iv 2 mg/kg, female BALB/c mice
[2] = mouse, plasma, iv 2 mg/kg, male BALB/c mice
[3] = mouse, plasma, po 30 mg/kg, female BALB/c mice
[4] = mouse, plasma, po 30 mg/kg, male BALB/c mice
[5] = mouse, plasma, po 60 mg/kg, female BALB/c mice
[6] = mouse, plasma, po 60 mg/kg, male BALB/c mice
[7] = mouse, plasma, po 120 mg/kg, female BALB/c mice
[8] = mouse, plasma, po 120 mg/kg, male BALB/c mice
[9] = po 30 mg/kg, female BALB/c mice
[10] = po 60 mg/kg, female BALB/c mice
[11] = po 120 mg/kg, female BALB/c mice

Cc1cc(C#N)cc(C)c1Oc1nc(NC2CCN(Cc3ccc(S(N)(=O)=O)cc3)CC2)nc2ccsc12 [K-5a2]
bioavailability (BALB/c, mouse, plasma, female mice, oral doses, read-out: Oral bioavailability): 8.5 ± 2.7% | bioavailability (BALB/c, mouse, plasma, male mice, oral doses, read-out: Oral bioavailability): 6.8 ± 1.3% | Tmax (both, mouse, plasma, single oral administration at 30, 60, or 120 mg/kg, BALB/c mice, read-out: Time to peak plasma concentration): 15 to 30 min | Cmax (female, BALB/c, mouse, plasma, iv, 2 mg/kg, iv 2 mg/kg, female BALB/c mice, read-out: Cmax): 1100 ng/mL | Cmax (female, BALB/c, mouse, plasma, po, 30 mg/kg, po 30 mg/kg, female BALB/c mice, read-out: Cmax): 416 ng/mL | Cmax (female, BALB/c, mouse, plasma, po, 60 mg/kg, po 60 mg/kg, female BALB/c mice, read-out: Cmax): 1100 ng/mL | Cmax (female, BALB/c, mouse, plasma, po, 120 mg/kg, po 120 mg/kg, female BALB/c mice, read-out: Cmax): 1940 ng/mL | Cmax (iv 2 mg/kg, female BALB/c mice, 2 mg/kg): 1098.3 ng/mL | Cmax (iv 2 mg/kg, male BALB/c mice, 2 mg/kg): 1078.7 ng/mL | Cmax (male, BALB/c, mouse, plasma, iv, 2 mg/kg, iv 2 mg/kg, male BALB/c mice, read-out: Cmax): 1080 ng/mL | Cmax (male, BALB/c, mouse, plasma, po, 30 mg/kg, po 30 mg/kg, male BALB/c mice, read-out: Cmax): 345 ng/mL | Cmax (male, BALB/c, mouse, plasma, po, 60 mg/kg, po 60 mg/kg, male BALB/c mice, read-out: Cmax): 749 ng/mL | Cmax (male, BALB/c, mouse, plasma, po, 120 mg/kg, po 120 mg/kg, male BALB/c mice, read-out: Cmax): 1680 ng/mL | AUC(0-t) [1]: 461 ng·h/mL | clearance [1]: 69.2 mL/min/kg | Tmax (mouse, plasma, iv 2 mg/kg, female BALB/c mice, read-out: Tmax): 1.98 min | Vd (mouse, plasma, iv 2 mg/kg, female BALB/c mice, read-out: Vd): 14.1 L/kg | half-life [1]: 141 min | AUC(0-t) [2]: 454 ng·h/mL | clearance [2]: 70.5 mL/min/kg | Tmax (mouse, plasma, iv 2 mg/kg, male BALB/c mice, read-out: Tmax): 1.98 min | Vd (mouse, plasma, iv 2 mg/kg, male BALB/c mice, read-out: Vd): 13.3 L/kg | half-life [2]: 131 min | AUC(0-t) [3]: 488 ng·h/mL | bioavailability (mouse, plasma, po 30 mg/kg, female BALB/c mice, read-out: F): 7.05% | Tmax (mouse, plasma, po 30 mg/kg, female BALB/c mice, read-out: Tmax): 15 min | half-life [3]: 65.4 min | AUC(0-t) [4]: 482 ng·h/mL | bioavailability (mouse, plasma, po 30 mg/kg, male BALB/c mice, read-out: F): 7.08% | Tmax (mouse, plasma, po 30 mg/kg, male BALB/c mice, read-out: Tmax): 30 min | half-life [4]: 62.4 min | AUC(0-t) [5]: 1420 ng·h/mL | bioavailability (mouse, plasma, po 60 mg/kg, female BALB/c mice, read-out: F): 10.2% | Tmax (mouse, plasma, po 60 mg/kg, female BALB/c mice, read-out: Tmax): 15 min | half-life [5]: 71.4 min | AUC(0-t) [6]: 968 ng·h/mL | bioavailability (mouse, plasma, po 60 mg/kg, male BALB/c mice, read-out: F): 7.1% | Tmax (mouse, plasma, po 60 mg/kg, male BALB/c mice, read-out: Tmax): 30 min | half-life [6]: 85.2 min | AUC(0-t) [7]: 3580 ng·h/mL | bioavailability (mouse, plasma, po 120 mg/kg, female BALB/c mice, read-out: F): 12.9% | Tmax (mouse, plasma, po 120 mg/kg, female BALB/c mice, read-out: Tmax): 30 min | half-life [7]: 49.2 min | AUC(0-t) [8]: 2460 ng·h/mL | bioavailability (mouse, plasma, po 120 mg/kg, male BALB/c mice, read-out: F): 9.05% | Tmax (mouse, plasma, po 120 mg/kg, male BALB/c mice, read-out: Tmax): 30 min | half-life [8]: 105 min | CL [9]: 1007 mL/min/kg | Vd [9]: 95.0 L/kg | CL (po 30 mg/kg, male BALB/c mice): 1016 mL/min/kg | Vd (po 30 mg/kg, male BALB/c mice): 91.4 L/kg | CL [10]: 697.5 mL/min/kg | Vd [10]: 71.9 L/kg | CL (po 60 mg/kg, male BALB/c mice): 1021 mL/min/kg | Vd (po 60 mg/kg, male BALB/c mice): 125.1 L/kg | CL [11]: 557.2 mL/min/kg | Vd [11]: 39.7 L/kg | CL (po 120 mg/kg, male BALB/c mice): 791.3 mL/min/kg | Vd (po 120 mg/kg, male BALB/c mice): 120.2 L/kg
